We go through 7 compounds from patent publication US4983603A, “Tricyclic cholinergic receptor agonists” (Societe Anonyme: SANOFI, priority 1987, dated 1991).

pIC50: −log10 of the molar value.

Assay [1] deals with T1, M1-type muscarinic cholinergic receptor (Rattus norvegicus, UniProt P08482).
T1 sequence (P08482 1-460): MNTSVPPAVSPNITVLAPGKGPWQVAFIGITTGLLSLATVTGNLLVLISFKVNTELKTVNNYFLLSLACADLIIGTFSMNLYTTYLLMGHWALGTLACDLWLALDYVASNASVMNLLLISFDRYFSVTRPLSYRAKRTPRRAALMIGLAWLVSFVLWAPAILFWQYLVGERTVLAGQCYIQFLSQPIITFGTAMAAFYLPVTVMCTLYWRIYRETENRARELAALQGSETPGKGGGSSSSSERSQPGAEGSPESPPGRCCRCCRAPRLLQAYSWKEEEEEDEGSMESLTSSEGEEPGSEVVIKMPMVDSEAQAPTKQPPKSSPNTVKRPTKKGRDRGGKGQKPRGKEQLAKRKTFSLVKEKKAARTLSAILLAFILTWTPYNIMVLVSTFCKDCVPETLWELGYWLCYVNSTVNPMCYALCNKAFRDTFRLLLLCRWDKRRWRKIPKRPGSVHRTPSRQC
The assay can be described thus: Test for affinity for the M1-type muscarinic cholinergic receptor (displacement of [3H]pirenzepine). In kind it is binding. The following applies: for r = (M2/M1), ratio of the IC50 values (selectivity): M2 IC50 (guinea-pig ileum) / M1 IC50 (rat hippocampus); for pIC50: homogenate of rat hippocampus, [3H]PZ 1 nM, 2 h at 4° C., pH 7.40. A general note: Displacement assays read how much labelled ligand stays bound in the presence of the test substance.
Procedure: (A) Test for Affinity for the M1 -Type Muscarinic Cholinergic Receptor
The interaction of the molecules with M1 -type muscarinic receptors was studied by in vitro measurement, on a homogenate of rat hippocampus, of the displacement of tritiated pirenzepine ([^3 H]PZ) from its specific binding sites. Aliquots (10 μl) of a 5% (w/v) homogenate of rat hippocampus in an Na2 HPO4 buffer (50 mM, pH 7.40) are incubated for 2 h at 4° C. in the presence of [^3 H]PZ (76 Ci/nmol; final concentration: 1 nM) and increasing concentrations of products to be studied. The final volume is 2 ml. The reaction is stopped by centrifugation for 10 min at 50,000×g. After decantation and washing of the residues, the bound radioactivity is counted by liquid scintillation. The non-specific binding is determined in the presence of 10 μmol/l of atropine sulfate. The 50% inhibitory concentration (IC50) is determined graphically (Ref.: Watson J. D., Roeskoe W. R. and Yamamura H. I., Life Sci., 31, 2019-2029, 1982).

Assay [2] deals with M1 central muscarinic cholinergic receptors. The assay can be described thus: Antagonism of rotational behavior induced by intrastriatal injection of pirenzepine in mice. In kind it is in vivo, mice (Swiss, CD 1, female). The settings on record: i.p., 15 minutes before pirenzepine, * p<0.05, ** p<0.01 vs control animals. On the procedure:
Pirenzepine (PZ) is a specific antagonist of M1 central muscarinic cholinergic receptors. The intrastriatal injection of PZ into mice induces rotational behavior. The antagonism of this behavior by the products according to the invention was studied. The products according to the invention are injected intraperitoneally (i.p.) after solubilization in distilled water or suspension in a 5% solution of gum arabic. The control animals receive an injection of the pure solvent under the same conditions. The animals used are female mice (Swiss, CD 1, Charles River, France) with a body weight of between 25 and 30 grams. Pirenzepine is dissolved in a phosphate buffer; the pH of the solution is 6. The products to be studied or their solvents are injected intraperitoneally, in a volume of 0.4 ml per 20 g of body weight, 15 minutes before a direct injection of pirenzepine at a dose of […] into the right striatum of the mouse, according to the method described by P. WORMS et al. in Eur. J. Pharmacol., 1986, 121, 395-401. The number of contralateral rotations (rotations in the opposite direction to the side injected) was counted for three 2-minute periods after the injection of pirenzepine: minutes 2 to 4, 8 to 10 and 13 to 15. Each treatment includes 1 to 3 doses and 10 animals per dose. For each treatment, the total number of rotations and the percentage antagonism compared with the control group are calculated.

In assay [3] the target is T2, M2-type muscarinic cholinergic receptor (Cavia porcellus, UniProt H0VRN8).
T2 construct: on a homogenate of smooth muscle of guinea-pig ileum; from tissue; host or cells: guinea-pig ileum smooth muscle homogenate
T2 sequence (H0VRN8 1-466): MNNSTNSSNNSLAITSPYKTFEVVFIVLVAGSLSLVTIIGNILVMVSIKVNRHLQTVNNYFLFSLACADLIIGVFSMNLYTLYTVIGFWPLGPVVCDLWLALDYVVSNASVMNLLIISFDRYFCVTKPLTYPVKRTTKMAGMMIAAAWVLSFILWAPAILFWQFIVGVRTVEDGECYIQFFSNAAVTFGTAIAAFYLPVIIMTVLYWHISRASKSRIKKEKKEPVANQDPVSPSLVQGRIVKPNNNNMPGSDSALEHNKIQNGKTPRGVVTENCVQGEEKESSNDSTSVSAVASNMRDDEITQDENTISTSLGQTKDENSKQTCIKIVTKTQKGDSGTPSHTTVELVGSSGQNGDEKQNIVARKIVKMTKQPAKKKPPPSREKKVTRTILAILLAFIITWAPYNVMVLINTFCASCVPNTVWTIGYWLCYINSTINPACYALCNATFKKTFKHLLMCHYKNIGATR
The assay can be described thus: Test for affinity for the M2-type muscarinic cholinergic receptor (displacement of [3H]N-methylscopolamine). It counts as binding. The following applies: homogenate of smooth muscle of guinea-pig ileum, [3H]NMS 0.3 nM, 20 min at 30° C., pH 7.5. An excerpt: The M1 -type receptors are concentrated in certain areas of the brain, such as the hippocampus, the cerebral cortex and the striatum, and also in the sympathetic ganglia. These binding sites can be selectivity labeled with [^3 H] pirenzepine ([^3 H]PZ). The M2 -type receptors predominate in the heart and ileum and can be labeled with [^3 H] N-methylscopolamine ([^3 H]NMS). To determine the selectivity of the products of the invention towards the M1 and M2 sites, we studied their interaction in vitro with [^3 H]PZ and [^3 H]NMS bound with a high affinity to membranes of rat hippocampus and membranes of smooth muscle of guinea-pig ileum, respectively.
(B) Test for Affinity for the M2 -Type Muscarinic Cholinergic Receptor
The interaction with M2 -type muscarinic receptors was studied by in vitro measurement, on a homogenate of smooth muscle of guinea-pig ileum, of the displacement of tritiated N-methylscopolamine ([^3 H]NMS) from its specific binding sites. Aliquots (50 μl) of a 0.625% (w/v) homogenate of smooth muscle of guinea-pig ileum in MEPES buffer (20 mM) containing NaCl (100 mM) and MgCl2 (10 mM) (final pH: 7.5) are incubated for 20 min at 30° C. in the presence of [^3 H]NMS ([…]; final concentration: 0.3 nM) and increasing concentrations of products to be tested. The final volume is 1 ml. The reaction is stopped by centrifugation for 5 min at 15,000×g. The non-specific binding is determined in the presence of 10 μmol/l of atropine sulfate. (Ref.: Hammer R., Berrie C. P., Birdsall N. I. M., Burgen A. S. V. and Hulme E. C., Nature, 283, 90-92, 1980; Hulme E. C., Birdsall N. I. M., Burgen A. S. V. and Mettha P., Mol. Pharmacol., 14, 737-750, 1978).
Table 2 indicates the affinities of the products of the invention for M1 and M2 receptors. The results are expressed as 50% inhibitory concentrations (IC50), i.e. the concentration (in μM) which causes a 50% displacement of the tritiated ligand bound to the membrane receptors. The IC50 for displacement of ^3 H-pirenzepine represents the affinity for the M1 receptor; the IC50 for displacement of ^3 H-NMS represents the affinity for the M2 receptor.

Take `Cl.Cl.c1ccc2c(c1)sc1cc(NCCN3CCOCC3)nnc12` [SR 44289 A, 2-(2-Morpholinoethylamino)-9-thia-3,4-diazafluorene dihydrochloride]: the “r = (M2/M1), ratio of the IC50 values (selectivity)” value (shortened to “r = (M2/M1), ratio … (selectivity)”) in assay [1] was 28. Besides, the pIC50 was 5.46 in assay [1] and 4.00 in assay [3]. Moreover, the “Pirenzepine antagonism (percentage antagonism compared with control group, rotations)” value in assay [2] (3 mg/kg) is given as -42%; in assay [2] (10 mg/kg) it was -85%.
Regarding `Cl.Cl.c1ccc2c(c1)OCc1cc(NCCN3CCOCC3)nnc1-2` [SR 96094 A, 2-(2-Morpholinoethylamino)-9,10-dihydro-9-oxa-3,4-diazaphenanthrene dihydrochloride], the “r = (M2/M1), ratio … (selectivity)” value in assay [1] was greater than 27. For the same compound, the results for the pIC50 in assay [1] and in assay [3] were 5.44 and less than 4.00, respectively. Further, the entries for the “Pirenzepine antagonism (percentage antagonism compared with control group, rotations)” value in assay [2] (3 mg/kg), in assay [2] (10 mg/kg) and in assay [2] (30 mg/kg) were -8%, -20% and -85%, respectively.
On to `CCN(CC)CCNc1cc2oc3ccccc3c2nn1` [SR 45040 A], for which the “r = (M2/M1), ratio … (selectivity)” value in assay [1] is recorded as 64. In addition, the results for the pIC50 in assay [1] and in assay [3] were 6.15 and 4.35, respectively. Besides, in assay [2] (3 mg/kg), the “Pirenzepine antagonism (percentage antagonism compared with control group, rotations)” value is listed as -47%.
Turning to `CCN(CC)CCCNc1cc2oc3ccccc3c2nn1` [SR 45041 A], in assay [1], the “r = (M2/M1), ratio … (selectivity)” value amounted to 100 and the pIC50 is 7.00. Also, the “Pirenzepine antagonism (percentage antagonism compared with control group, rotations)” value in assay [2] (3 mg/kg) is -72%. Further, in assay [3], the pIC50 was 5.00.
Taken in the same sequence, the figures for `CCN1CCCC1CNc1cc2oc3ccccc3c2nn1` (centres unmarked) [SR 45042 A] were 500, 7.00, -52% and 4.30.
Consider `CCN(CC)CCNc1cc2c(nn1)-c1ccccc1SC2.Cl.Cl` [SR 96056 A, 2-(2-Diethylaminoethylamino)-9,10-dihydro-9-thia-3,4-diazaphenanthrene dihydrochloride], for which the “r = (M2/M1), ratio … (selectivity)” value in assay [1] is given as 24. For the same compound, the pIC50 is 6.82 in assay [1] and 5.44 in assay [3]. The figures for the “Pirenzepine antagonism (percentage antagonism compared with control group, rotations)” value in assay [2] (3 mg/kg), in assay [2] (10 mg/kg) and in assay [2] (30 mg/kg) were -14%, -55% and -79%, respectively.
As for `Cl.Cl.c1ccc2c(c1)oc1cc(NCCN3CCOCC3)nnc12` [SR 44288 A, 2-(2-Morpholinoethylamino)-9-oxa-3,4-diazafluorene dihydrochloride], the “r = (M2/M1), ratio … (selectivity)” value in assay [1] is given as greater than 33. Besides, the pIC50 is 5.52 in assay [1] and less than 4.00 in assay [3]. Moreover, the “Pirenzepine antagonism (percentage antagonism compared with control group, rotations)” value in assay [2] (3 mg/kg) is listed as -32%; in assay [2] (10 mg/kg), -52%; in assay [2] (30 mg/kg), -100%.

By pIC50 is commonly meant the IC50 on a negative log10 scale, so that one unit is a factor of ten. Lower therefore signals a large IC50.
